Experimental data from patent publication EP2283839A1, “Polyunsaturated hydroxylated molecule having an eze geometry and its use in therapy” (Institut National des Sciences Appliquées de Lyon, priority 2009, dated 2011).
Marks after values point to notes of the source that are not given here.

Test system: platelets isolated from human blood
Assay: Measurement of platelet aggregation (turbidimetric method, aggregometer)
Format: cell-based
Conditions: 1 µM triene molecules; Collagen-induced platelet aggregation; measured after 4 min
Description: Aggregation tests were performed on platelets isolated from human blood in presence or not of different dihydroxylated triene compounds with different double bond geometry: ZEE, EZE or ZZZ. Platelet aggregation was determined by a standard turbidimetric method using a dual aggregometer (CHRONO-LOG, USA). The levels of light transmission were calibrated as 0 % for a platelet suspension and 100% for the Tyrode/HEPES solution (pH 7.35). 400 µl of platelet suspension in a vial was preincubated for 1 min at 37 °C under a continuous stirring condition, 1 µl of sample in ethanol was added for incubation, the activators (collagen, arachidonic acid, or U46619) were added after 2 min of incubation and the extent of platelet aggregation was measured after 4 min running. Other compounds were prepared using the same procedure or by conversion of PDX and compared to similar compounds of different configurations ZEE or EEE. Table I: Effects of 1 µM triene molecules on Collagen-induced platelet aggregation

SMILES | % inhibition
CCCCC/C=C\C[C@H](O)/C=C/C=C\C=C\[C@@H](O)CCCC(=O)O [5(S),12(S)-diHETE, 5(S),12(S)-dihydroxy-eicosa-6E,8Z,10E,14Z tetraenoic acid] | 74.9** %
CCCCC/C=C\C[C@@H](O)/C=C/C=C/C=C/[C@@H](O)CCCC(=O)O [6-trans LTB4, 5(S),12(R)-dihydroxy-eicosa-6E,8E,10E,14Z-tetraenoic acid] | 8.1%
CCCCC/C=C\C[C@H](O)/C=C/C=C/C=C/[C@@H](O)CCCC(=O)O [6trans-12-epi LTB4, 5(S),12(S)-dihydroxy-eicosa-6E,8E,10E,14Z-tetraenoic acid] | 1.8%
CCCCC[C@H](O)/C=C/C=C\C=C\[C@@H](O)C/C=C\CCCC(=O)O [8(S),15(S)-diHETE, 8(S),15(S)-dihydroxy-eicosa-5Z,9E,11Z,13E -tetraenoic acid] | 66.5** %
CC/C=C\C[C@H](O)/C=C/C=C\C=C\[C@H](O)C/C=C\C/C=C\CCC(=O)O [10(R),17(S)-diOH-22:6, 10(R),17(S)-dihydroxy-docosa-4Z,7Z,11E,13Z,15E,17Z-hexaenoic acid] | 70.0** %
CCCCCCCC[C@H](O)/C=C/C=C/C=C\[C@@H](O)CCCC(=O)O [12-epi LTB3, 5(S),12(S)-dihydroxy-eicosa-6Z,8E,10E,-trienoic acid] | 7.4%
CCCCC/C=C\C[C@H](O)/C=C/C=C/C=C\[C@@H](O)CCCC(=O)O [12-epi LTB4, 5(S),12(S)-dihydroxy-eicosa-6Z,8E,10E,14Z-tetraenoic acid] | 3.9%
CCCCCCCC[C@@H](O)/C=C/C=C/C=C\[C@@H](O)CCCC(=O)O [LTB3, 5(S),12(R)-dihydroxy-eicosa-6Z,8E,10E,-trienoic acid] | 5.0%
CCCCC/C=C\C[C@@H](O)/C=C/C=C/C=C\[C@@H](O)CCCC(=O)O [LTB4, 5(S),12(R)-dihydroxy-eicosa-6Z,8E,10E,14Z-tetraenoic acid] | 3.4%
CC/C=C\C[C@H](O)/C=C/C=C\C=C\[C@@H](O)C/C=C\C/C=C\CCC(=O)O [PDX, 10S,17S-dihydroxy-docosa-4Z,7Z,11E,13Z,15E,19Z-hexaenoic acid] | 56.1** %
CCCCC[C@H](O)/C=C/C=C\C=C\[C@@H](O)CCCCCCCCC(=O)O [diOH-22:3, 10(S),17(S)-dihydroxy-docosa-11E,13Z,15E,-trienoic acid] | 63.8** %
